Data published in patent publication US9970037B2, “Methods and materials for making simvastatin and related compounds” (The Regents of the University of California, priority 2006, dated 2018).

How the values were obtained:
E. coli BL21(DE3)/pAW31 = assay: Whole cell biocatalysis with E. coli overexpressing LovD; type: cell-based, Escherichia coli; settings: 0.5 mM lovastatin (sodium salt form)
Description: The BL21(DE3)/pAW31 overexpression strain was grown in a shake flask (200 mL) to an OD600 of 1.0, at which time 1 mM IPTG, 0.8 mM monacolin J and 4 mM of either benzoyl-SNAC or benzoyl-SMTG were added to the culture. Expression of LovD and bioconversion was performed at 18° C. The culture was extracted and analyzed for the formation of 8-benzoyl-monacolin J. When supplemented with benzoyl-SNAC, 84% conversion of monacolin J was detected within 20 hours post-induction. The product was lactonized and purified by a single silica-gel chromatography step. The NMR spectra confirmed the regioselective benzoylation of the C8 hydroxyl group as the diagnostic H8 multiplet is shifted downfield to δ 5.61.
Fermentation conditions: 500 mL culture with LB media with 30 mg/L kanamycin. At OD600 of 1.0, cells were concentrated to a final OD600 of 5.0 and induced with 1 mM IPTG. Substrates monacolin J and α-dimethylbutyryl-SNAC were added to a final concentration of 1 mM and 4 mM. At different time points, culture samples were collected, centrifuged, filtered and injected on to HPLC (20 μL). Extraction conditions: When maximum conversion was reached, the broth was acidified to pH of 2.0, extracted with ethyl acetate, dried and redissolved in toluene.
Whole-cell catalytic synthesis of simvastatin acid from MJ acid and DMB-S-MMP were performed as described (see, e.g., Xie et al., (2007) Appl Environ Microbiol 73: 2054-2060). The E. coli BL21(DE3)/pAW31 and YT2/pAW31 strains were cultured side-by-side for comparison. A single colony of the freshly transformed strains was used to inoculate a 5 mL LB culture supplemented with 35 mg/L kanamycin and grown overnight at 37° C. The next morning, 100 μL of the overnight culture was inoculated into 50 mL cultures containing LB broth, F1 minimal medium and F1 medium supplemented with 0.15 mg/L biotin. Growth rates were monitored by periodically measuring the OD600 reading. When OD600 reached ˜0.5, 100 μM IPTG was added to the culture and expression of LovD was performed at 20° C. for 16 hours. To mimic high density fermentation conditions, the cells were concentrated 10-fold before addition of substrates. Typically, a 14 mL aliquot of the culture was transferred to a 15 mL centrifuge tube and the cells were collected by centrifugation (4° C., 4000 g, 10 minutes). The cell pellet was gently resuspended in 1316 μl of the supernatant, followed by addition of 84 μl of a MJ acid stock solution (250 mM in H2O) (final concentration 15 mM). The concentrated culture was then separated into seven 200 μL samples and 1.2 μL of pure DMB-S-MMP was added to each sample (final concentration ˜25 mM). The culture was then shaken at 300 rpm at room temperature. At each time point, a total extraction was performed by adding 10 μL 20% SDS to lyse the cells, followed by liquid-liquid extraction with 500 μL EA/1% AcOH. The organic phase was removed, evaporated, and redissolved in 50 μL ACN for HPLC analysis. For the BL21(DE3) sample, an additional 1.2 μL aliquot of DMB-S-MMP was added after 12 hours to replenish the hydrolyzed substrates.
The E. coli BL21(DE3)/pAW31 strain was grown in LB medium at 37° C. to an OD600 of 0.5, at which time 100 μM IPTG was added to the culture and expression was performed at RT for 16 hours. A 10 ml culture was transferred to a 15 mL centrifuge tube. The cells were collected by centrifugation (4000 g, 10 minutes). The cell pellet was resuspended in 957 μl of the supernatant. The pH was adjusted to pH 7.9 with 1.0 N NaOH, followed by addition of 33 μl 450 mM MJ (final concentration 15 mM) and 6 μl pure DMB-S-MMP (final concentration ˜25 mM). The culture was then shaken at 300 rpm at room temperature. At each time point, a 4 μL aliquot was removed from the reaction mixture, quenched in 300 μL ethyl acetate containing 1% TFA.

LovD = target: T1, LovD (Aspergillus terreus, UniProt Q9Y7D1); parameters: 6xHis (N); made in house; host or cells: E. coli BL21(DE3)/pAW31 (pET28a); settings: Xie et al., 2006; cited from earlier work
T1 sequence (Q9Y7D1 1-413): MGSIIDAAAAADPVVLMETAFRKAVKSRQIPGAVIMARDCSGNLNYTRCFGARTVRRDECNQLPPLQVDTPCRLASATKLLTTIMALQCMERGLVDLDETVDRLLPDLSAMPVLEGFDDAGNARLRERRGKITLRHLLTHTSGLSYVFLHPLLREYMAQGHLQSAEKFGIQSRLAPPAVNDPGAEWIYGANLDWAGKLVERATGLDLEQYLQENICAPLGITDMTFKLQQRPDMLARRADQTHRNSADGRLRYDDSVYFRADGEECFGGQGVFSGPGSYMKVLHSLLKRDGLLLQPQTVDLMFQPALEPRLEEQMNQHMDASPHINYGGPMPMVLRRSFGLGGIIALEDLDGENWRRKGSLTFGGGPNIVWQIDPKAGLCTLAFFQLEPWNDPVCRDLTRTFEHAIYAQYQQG

CC[C@H](C)C(=O)O[C@H]1C[C@@H](C)C=C2C=C[C@H](C)[C@H](CC[C@@H]3C[C@@H](O)CC(=O)O3)[C@H]21 [lovastatin, reference compound]
conversion rate of whole cell hydrolysis (E. coli BL21(DE3)/pAW31): ~0.01 mM per hour | hydrolysis to monacolin J by whole cells (E. coli BL21(DE3)/pAW31; 48 hours): 91% | kcat of LovD hydrolysis of lovastatin into monacolin J in vitro (previously reported) (LovD): 0.0035 s⁻¹
